Results: US12544463B2, “Deuterium substituted positron emission tomography (PET) imaging agents and their pharmacological application” (Five Eleven Pharma Inc., priority 2017, dated 2026)
Read-outs that look alike come from different tables or passages of the source. One block for each compound: values may come before it.

What was measured:
[1] = biological target: T1, Aβ aggregates of human AD brain homogenates (Homo sapiens, UniProt P05067); test: In vitro binding assay for Aβ aggregates of human AD brain homogenates; conditions: for Ki: Avg ± SD, n = 3, read-out: Ki of cold competing drug; for Kd: value used in Cheng-Prusoff equation
T1 construct: from tissue; host or cells: human Alzheimer's disease brain homogenate
Experimental: Competitive binding assays were performed in 12×75 mm borosilicate glass tubes. The reaction mixture contained 100 μL of AD brain homogenates (20-25 μg), 100 μL of [^18F]AV-45 or [^18F]AV-45-D3 (˜150,000 cpm), and 100 μL of competing compounds (10^−5 to 10^−10 M diluted serially in PBS containing 0.1% bovine serum albumin) in a final volume of […]. Nonspecific binding was defined in the presence of 1 μM of IMPY (6-iodo-2-(4′-dimethylamino-)phenyl-imidazo[1,2-a]pyridine) in the same assay tubes. The mixture was incubated for 60 min at room temperature, and the bound and the free radioactivity were separated by vacuum filtration through Whatman GF/B filters using a Brandel M-24R cell harvester, followed by washing with PBS buffer three times. The radioactivity on the filters was counted with a gamma counter (Wizard^2, Perkin-Elmer). Data were analyzed using the nonlinear least-square curve fitting program LIGAND to determine IC50.

[2] = biological target: T2, Aβ plaques in AD brain tissue homogenates (Homo sapiens, UniProt P05067); conditions: cited from earlier work; for Ki: read-out: inhibition constant Ki
T2 construct: host or cells: AD brain tissue homogenate

[3] = biological target: T3, vesicular monoamine transporter 2 (VMAT2) (Rattus norvegicus, UniProt Q01827); test: In vitro binding assay for Ki determination, rat striatum homogenates; conditions: for Ki: Avg ± SD, n = 3, read-out: Ki of cold competing drug; for Kd: value used in Cheng-Prusoff equation
T3 construct: Tissue homogenates of striatum (dissected from rat brain) were prepared; from tissue; host or cells: rat brain striatum homogenate
Experimental: Tissue homogenates of striatum (dissected from rat brain) were prepared in 50 mM of HEPES, pH 7.5, and 0.3 M of sucrose. Compounds were examined for their ability to compete for the binding of ^18F-AV-133 or ^18F-AV-133-D6 (^18F-Ia) (0.15-0.2 nM) at concentrations ranging from 10^−7 to 10^−12 M. The binding assays were performed in glass tubes (12×75 mm) in a final volume of 0.25 mL. […] After incubation for 90 min at room temperature, the bound ligand was separated from the free ligand by filtration through glass fiber filters. The filters were washed three times with 4 mL of ice-cold PBS buffer, pH 7.4 and the radioactivity on the filters was counted with a gamma counter (WIZARD^2, Perkin-Elmer).

[4] = humans, cited from earlier work
[5] = cited from earlier work; for Biodistribution Blood / Biodistribution Bone / Biodistribution Brain / Biodistribution Liver / Biodistribution Muscle: normal male mice, Choi, 2009
[6] = cited from earlier work

T2 sequence (P05067 672-713 limits assumed): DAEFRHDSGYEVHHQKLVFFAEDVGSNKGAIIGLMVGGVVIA
T1 sequence (P05067 672-713 limits assumed): as above
T3 sequence (Q01827 whole entry): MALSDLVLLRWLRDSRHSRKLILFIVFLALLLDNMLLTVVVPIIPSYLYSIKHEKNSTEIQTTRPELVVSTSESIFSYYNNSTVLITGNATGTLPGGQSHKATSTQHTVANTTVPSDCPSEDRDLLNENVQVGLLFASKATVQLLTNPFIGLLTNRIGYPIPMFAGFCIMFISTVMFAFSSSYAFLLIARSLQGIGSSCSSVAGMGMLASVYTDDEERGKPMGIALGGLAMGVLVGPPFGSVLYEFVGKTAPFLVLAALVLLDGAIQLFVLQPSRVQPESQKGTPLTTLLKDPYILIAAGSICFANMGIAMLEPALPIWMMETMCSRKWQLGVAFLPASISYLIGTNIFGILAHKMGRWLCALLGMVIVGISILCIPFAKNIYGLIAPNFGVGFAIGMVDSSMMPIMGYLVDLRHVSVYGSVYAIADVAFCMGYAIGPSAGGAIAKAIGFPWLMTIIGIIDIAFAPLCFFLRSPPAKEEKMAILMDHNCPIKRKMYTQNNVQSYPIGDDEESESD

SMILES: [2H]C([2H])([2H])Nc1ccc(/C=C/c2ccc(OCCOCCOCCF)cc2)cc1 [AV-1-D3, IIa2]
Ki ([1]; hot ligand ^18F-AV-45-D3): 4.15 ± 0.75 nM
Ki ([1]; hot ligand ^18F-AV-45): 3.35 ± 0.88 nM

SMILES: [2H]C([2H])([2H])Nc1ccc(/C=C/c2ccc(OCCOCCOCCF)nc2)cc1 [AV-45-D3, IIa1]
Ki ([1]; hot ligand ^18F-AV-45-D3): 3.25 ± 0.82 nM
Ki ([1]; hot ligand ^18F-AV-45): 3.44 ± 1.22 nM
Kd [1]: 3.51 nM

SMILES: [2H]C([2H])(F)C([2H])([2H])C([2H])([2H])Oc1cc2c(cc1OC)[C@H]1C[C@@H](O)[C@H](CC(C)C)CN1CC2 [Ia (AV-133-D6), (2R,3R,11R)-9-(3-Fluoropropoxy-[1,1,2,2,3,3-D6])-3-isobutyl-10-methoxy-2,3,4,6,7,11b-hexahydro-1H-pyrido[2,1-a]isoquinolin-2-ol]
Ki ([3]; hot ligand ^18F-AV-133-D6): 0.33 ± 0.06 nM
Ki ([3]; hot ligand ^18F-AV-133): 0.32 ± 0.07 nM
Kd [3]: 0.11 nM

SMILES: CNc1ccc(/C=C/c2ccc(OCCOCCOCCF)nc2)cc1 [^18F-AV-45]
decrease of plasma radioactivity ([4]; within 10 min of the injection): approximately 80%
decrease of plasma radioactivity ([4]; within 20 min of the injection): approximately 90%
initial brain uptake relative to metabolite ^18F-AV-160 ([5]; mice, initial uptake): 1.5 fold
Biodistribution Blood ([5]; 2 min): 2.51 ± 0.31 % Dose/g
Biodistribution Bone ([5]; 2 min): 1.33 ± 0.24 % Dose/g
Biodistribution Brain ([5]; 2 min): 7.33 ± 1.54 % Dose/g
Biodistribution Liver ([5]; 2 min): 16.3 ± 5.38 % Dose/g
Biodistribution Muscle ([5]; 2 min): 3.49 ± 0.33 % Dose/g
Biodistribution Blood ([5]; 60 min): 2.37 ± 0.27 % Dose/g
Biodistribution Bone ([5]; 60 min): 3.66 ± 0.30 % Dose/g
Biodistribution Brain ([5]; 60 min): 1.88 ± 0.14 % Dose/g
Biodistribution Liver ([5]; 60 min): 11.1 ± 1.83 % Dose/g
Biodistribution Muscle ([5]; 60 min): 1.33 ± 0.08 % Dose/g
Biodistribution Blood ([5]; 120 min): 1.96 ± 0.23 % Dose/g
Biodistribution Bone ([5]; 120 min): 6.48 ± 0.34 % Dose/g
Biodistribution Brain ([5]; 120 min): 1.80 ± 0.20 % Dose/g
Biodistribution Liver ([5]; 120 min): 8.96 ± 0.28 % Dose/g
Biodistribution Muscle ([5]; 120 min): 1.02 ± 0.07 % Dose/g
Biodistribution Blood ([5]; 180 min): 1.39 ± 0.13 % Dose/g
Biodistribution Bone ([5]; 180 min): 7.83 ± 1.08 % Dose/g
Biodistribution Brain ([5]; 180 min): 1.48 ± 0.15 % Dose/g
Biodistribution Liver ([5]; 180 min): 5.39 ± 0.31 % Dose/g
Biodistribution Muscle ([5]; 180 min): 0.78 ± 0.09 % Dose/g
parent remained in the plasma ([6]; mice, 30 min after intravenous injection): 30%
biologic T1/2 in mouse plasma ([6]; mouse plasma, estimated): less than 30 min

SMILES: Nc1ccc(/C=C/c2ccc(OCCOCCOCC[18F])nc2)cc1 [^18F-AV-160]
brain uptake ([5]; mice, 2 min after injection): 4.5 % ID/g
brain uptake ([5]; mice, 60 min): 1.8 % ID/g
share of the plasma metabolites ([6]; mice, 30 min after injection): about 48%

SMILES: Nc1ccc(C=Cc2ccc(OCCOCCOCCF)nc2)cc1 [AV-160]
reduction of binding affinity vs nonradioactive AV-45 [2]: ≥ 20 fold
Ki [2]: 54 ± 5 nM

Second part, led by results:

Ki ([1]; hot ligand ^18F-AV-45-D3): 3.24 ± 0.76 nM
Ki ([1]; hot ligand ^18F-AV-45): 4.02 ± 0.22 nM
Kd [1]: 3.51 nM
SMILES: CNc1ccc(/C=C/c2ccc(OCCOCCOCCF)nc2)cc1 [AV-45, reference compound]
Ki [2]: 2.87 ± 0.17 nM

Ki ([3]; hot ligand ^18F-AV-133-D6): 0.26 ± 0.03 nM
Ki ([3]; hot ligand ^18F-AV-133): 0.33 ± 0.02 nM
Kd [3]: 0.11 nM
SMILES: COc1cc2c(cc1OCCCF)CCN1C[C@@H](CC(C)C)[C@H](O)C[C@H]21 [AV-133, reference compound]
